We go through 16 molecules from patent US20250179103A1, “6-OXODECAHYDROPYRROLO[1,2-A][1,5]DIAZOCINE AND 6-OXODECAHYDRO-4H-PYRROLO[2,1-D][1,5]THIAZOCINE DERIVATIVES AS STAT3 AND STAT6 MODULATORS FOR THE TREATMENT OF CANCER AND INFLAMMATORY CONDITIONS” (Recludix Pharma, Inc., priority 2022, published 2025).

The target in experiment [1] is T1, Recombinant STAT3 protein (STAT3(G127-I722)) (Homo sapiens, UniProt P40763).
T1 construct: Recombinant STAT3 protein (STAT3(G127-I722))
As to the kind of experiment: STAT3 Fluorescence Polarization (FP) Assay. Type of experiment: binding. To be noted: STAT3(G127-I722) 25 nM, probe 5-FAM-GpYLPQTV-NH2 2 nM, 45-minute incubation. Summed up: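 STAT3(G127-I722), 25 nM, was mixed with 2 nM 5-FAM-GpYLPQTV-NH2 probe in HEPES pH 7.4 buffer with 1% DMSO and serially diluted compound. FP (mP) was read after 45 min at room temperature. IC50 came from nonlinear regression.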
For orientation: Polarisation of emitted light reports the rotation of a fluorescent probe.

Experiment [2] has as its target T2, Recombinant STAT6 protein (STAT6(W123-T658)) (Homo sapiens, UniProt P42226).
T2 construct: Recombinant STAT6 protein (STAT6(W123-T658))
T2 sequence (P42226 123-658): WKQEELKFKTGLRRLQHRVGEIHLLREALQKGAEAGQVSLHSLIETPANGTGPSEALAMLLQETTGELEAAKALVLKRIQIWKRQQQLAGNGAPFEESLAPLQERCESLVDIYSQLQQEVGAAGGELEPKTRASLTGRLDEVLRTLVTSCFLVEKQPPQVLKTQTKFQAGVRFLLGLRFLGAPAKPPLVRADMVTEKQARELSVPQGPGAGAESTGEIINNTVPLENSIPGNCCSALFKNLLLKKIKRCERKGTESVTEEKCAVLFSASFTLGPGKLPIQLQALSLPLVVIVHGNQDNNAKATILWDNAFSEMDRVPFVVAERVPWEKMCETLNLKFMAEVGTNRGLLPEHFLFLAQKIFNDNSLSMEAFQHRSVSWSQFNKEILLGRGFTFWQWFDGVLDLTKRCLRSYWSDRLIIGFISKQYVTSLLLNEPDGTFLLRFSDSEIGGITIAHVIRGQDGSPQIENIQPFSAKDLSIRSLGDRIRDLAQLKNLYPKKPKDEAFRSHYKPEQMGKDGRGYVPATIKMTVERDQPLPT
As to the kind of experiment: STAT6 Fluorescence Polarization (FP) Assay. Type of experiment: binding. The settings on record: STAT6(W123-T658) 250 nM, probe 5-FAM-ApYKPFQDLI-NH2 2 nM, 45-minute incubation. Summed up:
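Displacement of a fluorescent phosphotyrosine peptide (5-FAM-ApYKPFQDLI-NH2, 2 nM) from STAT6(W123-T658) (250 nM), 1% DMSO, pH 7.4 HEPES buffer. After 45 min at room temperature, polarization (mP) was plotted versus log compound concentration and fitted by nonlinear regression to give IC50.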

Bounds are passed on as bounds.

T1 sequence (P40763 127-722): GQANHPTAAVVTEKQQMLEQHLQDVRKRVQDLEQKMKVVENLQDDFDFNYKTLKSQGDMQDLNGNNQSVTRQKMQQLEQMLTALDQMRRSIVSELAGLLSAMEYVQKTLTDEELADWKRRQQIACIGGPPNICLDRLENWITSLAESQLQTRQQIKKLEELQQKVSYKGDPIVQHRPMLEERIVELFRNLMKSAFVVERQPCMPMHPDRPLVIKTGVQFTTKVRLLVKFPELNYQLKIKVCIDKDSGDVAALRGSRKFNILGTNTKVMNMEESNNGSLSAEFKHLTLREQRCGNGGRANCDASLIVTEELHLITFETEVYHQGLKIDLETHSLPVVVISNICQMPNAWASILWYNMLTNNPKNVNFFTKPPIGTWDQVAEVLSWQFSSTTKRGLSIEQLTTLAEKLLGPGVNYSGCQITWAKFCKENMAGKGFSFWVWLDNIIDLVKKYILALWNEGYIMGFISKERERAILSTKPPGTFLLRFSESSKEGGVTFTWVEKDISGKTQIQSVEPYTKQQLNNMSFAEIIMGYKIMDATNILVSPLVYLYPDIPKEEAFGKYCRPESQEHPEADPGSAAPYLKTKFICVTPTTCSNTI

For the molecule `CC(=O)N1CC[C@H]2CC[C@@H](C(=O)Nc3cnc(S(C)(=O)=O)nc3)N2C(=O)[C@@H](NC(=O)c2cc3cc(C(F)(F)P(=O)(O)O)ccc3s2)C1` [Compound 94, ((2-(((5S,8S,10aR)-3-acetyl-8-((2-(methylsulfonyl)pyrimidin-5-yl)carbamoyl)-6-oxodecahydropyrrolo[1,2-a][1,5]diazocin-5-yl)carbamoyl)benzo[b]thiophen-5-yl)difluoromethyl)phosphonic acid], the IC50 (usually the concentration needed to halve the response being measured) in experiment [1] is 1000 to 10000 nM; in experiment [2] it was 300 to 3000 nM.
Consider `CC(=O)N1CC[C@H]2CC[C@@H](C(=O)N3CCC(Oc4ccncc4)C3)N2C(=O)[C@@H](NC(=O)c2cc3cc(C(F)(F)P(=O)(O)O)ccc3s2)C1` (stereo partly drawn) [Compound 95, ((1-(((5S,8S,10aR)-3-acetyl-6-oxo-8-(3-(pyridin-4-yloxy)pyrrolidine-1-carbonyl)decahydropyrrolo[1,2-a][1,5]diazocin-5-yl)carbamoyl)benzo[b]thiophen-5-yl)difluoromethyl)phosphonic acid], for which the values for the IC50 in experiment [1] and in experiment [2] were 100 to 1000 nM and 300 to 3000 nM, respectively.
On to `CC(=O)N1CC[C@H]2CC[C@@H](C(=O)N(C)c3ccc(-c4ccccc4)cc3)N2C(=O)[C@@H](NC(=O)c2cc3cc(C(F)(F)P(=O)(O)O)ccc3s2)C1` [Compound 96, ((2-(((5S,8S,10aR)-8-([1,1′-biphenyl]-4-yl(methyl)carbamoyl)-3-acetyl-6-oxodecahydropyrrolo[1,2-a][1,5]diazocin-5-yl)carbamoyl)benzo[b]thiophen-5-yl)difluoromethyl)phosphonic acid], for which the 50% inhibitory concentration (IC50) was 1000 to 10000 nM in experiment [1] and at most 300 nM in experiment [2].
For `CC(=O)N1CC[C@H]2CC[C@@H](C(=O)N3CC[C@@H](c4ccccc4)C3)N2C(=O)[C@@H](NC(=O)c2cc3cc(C(F)(F)P(=O)(O)O)ccc3s2)C1` [Compound 97, ((2-(((5S,8S,10aR)-3-acetyl-6-oxo-8-((S)-3-phenylpyrrolidine-1-carbonyl)decahydropyrrolo[1,2-a][1,5]diazocin-5-yl)carbamoyl)benzo[b]thiophen-5-yl)difluoromethyl)phosphonic acid] the same measures were 100 to 1000 nM and at most 300 nM.
For `CC(=O)N1CC[C@H]2CC[C@@H](C(=O)N3CC(Oc4ccccc4)C3)N2C(=O)[C@@H](NC(=O)c2cc3cc(C(F)(F)P(=O)(O)O)ccc3[nH]2)C1` [Compound 99, ((2-(((5S,8S,10aR)-3-acetyl-6-oxo-8-(3-phenoxyazetidine-1-carbonyl)decahydropyrrolo[1,2-a][1,5]diazocin-5-yl)carbamoyl)-1H-indol-5-yl)difluoromethyl)phosphonic acid] the same measures were 100 to 1000 nM and 300 to 3000 nM.
On to `CC(=O)N1CC[C@H]2CC[C@@H](C(=O)N3CC(c4ccccc4)C3)N2C(=O)[C@@H](NC(=O)c2cc3cc(C(F)(F)P(=O)(O)O)ccc3[nH]2)C1` [Compound 100, ((2-(((5S,8S,10aR)-3-acetyl-6-oxo-8-(3-phenylazetidine-1-carbonyl)decahydropyrrolo[1,2-a][1,5]diazocin-5-yl)carbamoyl)-1H-indol-5-yl)difluoromethyl)phosphonic acid], for which the concentration for half-maximal inhibition (IC50) in experiment [1] lay within 100 to 1000 nM; in experiment [2], 300 to 3000 nM.
Take `CCOc1ccc(N(C)C(=O)[C@@H]2CC[C@@H]3CCN(C(C)=O)C[C@H](NC(=O)c4cc5cc(C(F)(F)P(=O)(O)O)ccc5[nH]4)C(=O)N32)cc1` [Compound 101, ((2-(((5S,8S,10aR)-3-acetyl-8-((4-ethoxyphenyl)(methyl)carbamoyl)-6-oxodecahydropyrrolo[1,2-a][1,5]diazocin-5-yl)carbamoyl)-1H-indol-5-yl)difluoromethyl)phosphonic acid]: the IC50 in experiment [1] is 1000 to 10000 nM; in experiment [2], 300 to 3000 nM.
The like results for `CC(=O)N1CC[C@H]2CC[C@@H](C(=O)N(C)c3ccc(OCCN(C)C)cc3)N2C(=O)[C@@H](NC(=O)c2cc3cc(C(F)(F)P(=O)(O)O)ccc3[nH]2)C1` [Compound 102, ((2-(((5S,8S,10aR)-3-acetyl-8-((4-(2-(dimethylamino)ethoxy)phenyl)(methyl)carbamoyl)-6-oxodecahydropyrrolo[1,2-a][1,5]diazocin-5-yl)carbamoyl)-1H-indol-5-yl)difluoromethyl)phosphonic acid] were, in that order, 1000 to 10000 nM and 300 to 3000 nM.
Regarding `CC(=O)N1CC[C@H]2CC[C@@H](C(=O)Nc3ccc(-n4ccccc4=O)cc3)N2C(=O)[C@@H](NC(=O)c2cc3cc(C(F)(F)P(=O)(O)O)ccc3[nH]2)C1` [Compound 103, ((2-(((5S,8S,10aR)-3-acetyl-6-oxo-8-((4-(2-oxopyridin-1(2H)-yl)phenyl)carbamoyl)decahydropyrrolo[1,2-a][1,5]diazocin-5-yl)carbamoyl)-1H-indol-5-yl)difluoromethyl)phosphonic acid], the 50% inhibitory concentration (IC50) in experiment [1] fell in the range of 1000 to 10000 nM; in experiment [2], 3000 to 30000 nM.
Turning to `CC(=O)N1CC[C@H]2CC[C@@H](C(=O)N3CCC3Cc3ccccc3)N2C(=O)[C@@H](NC(=O)c2cc3cc(C(F)(F)P(=O)(O)O)ccc3[nH]2)C1` (stereo partly drawn) [Compound 104, ((2-(((5S,8S,10aR)-3-acetyl-8-(2-benzylazetidine-1-carbonyl)-6-oxodecahydropyrrolo[1,2-a][1,5]diazocin-5-yl)carbamoyl)-1H-indol-5-yl)difluoromethyl)phosphonic acid], the 50% inhibitory concentration (IC50) in experiment [1] fell in the range of 1000 to 10000 nM; in experiment [2] it was 300 to 3000 nM.
As to `CC(=O)N1CC[C@H]2CC[C@@H](C(=O)Nc3ccn(-c4ccccc4)c(=O)c3C#N)N2C(=O)[C@@H](NC(=O)c2cc3cc(C(F)(F)P(=O)(O)O)ccc3[nH]2)C1` [Compound 105, ((2-(((5S,8S,10aR)-3-acetyl-8-((3-cyano-2-oxo-1-phenyl-1,2-dihydropyridin-4-yl)carbamoyl)-6-oxodecahydropyrrolo[1,2-a][1,5]diazocin-5-yl)carbamoyl)-1H-indol-5-yl)difluoromethyl)phosphonic acid], the IC50 lay in the range of 100 to 1000 nM in experiment [1] and 300 to 3000 nM in experiment [2].
`CC(=O)N1CC[C@H]2CC[C@@H](C(=O)N3CCCC[C@H]3Cc3ccccc3)N2C(=O)[C@@H](NC(=O)c2cc3cc(C(F)(F)P(=O)(O)O)ccc3[nH]2)C1` [Compound 106, ((2-(((5S,8S,10aR)-3-acetyl-8-((S)-2-benzylpiperidine-1-carbonyl)-6-oxodecahydropyrrolo[1,2-a][1,5]diazocin-5-yl)carbamoyl)-1H-indol-5-yl)difluoromethyl)phosphonic acid]: the IC50 lay in the range of 1000 to 10000 nM in experiment [1] and 300 to 3000 nM in experiment [2].
On to `CC(=O)N1CC[C@H]2CC[C@@H](C(=O)N3CCC[C@@H](c4ccccc4)C3)N2C(=O)[C@@H](NC(=O)c2cc3cc(C(F)(F)P(=O)(O)O)ccc3[nH]2)C1` [Compound 107, ((2-(((5S,8S,10aR)-3-acetyl-6-oxo-8-((S)-3-phenylpiperidine-1-carbonyl)decahydropyrrolo[1,2-a][1,5]diazocin-5-yl)carbamoyl)-1H-indol-5-yl)difluoromethyl)phosphonic acid], for which the IC50 was 1000 to 10000 nM in experiment [1] and at most 300 nM in experiment [2].
For `CC(=O)N1CC[C@H]2CC[C@@H](C(=O)N(C)c3ccccc3C#N)N2C(=O)[C@@H](NC(=O)c2cc3cc(C(F)(F)P(=O)(O)O)ccc3[nH]2)C1` [Compound 108, ((2-(((5S,8S,10aR)-3-acetyl-8-((2-cyanophenyl)(methyl)carbamoyl)-6-oxodecahydropyrrolo[1,2-a][1,5]diazocin-5-yl)carbamoyl)-1H-indol-5-yl)difluoromethyl)phosphonic acid] the same measures were 1000 to 10000 nM and 300 to 3000 nM.
Take `CC(=O)N1CC[C@H]2CC[C@@H](C(=O)N(C)c3ccccc3)N2C(=O)[C@@H](NC(=O)c2cc3cc(C(F)(F)P(=O)(O)O)ccc3s2)C1` [Compound 109, ((2-(((5S,8S,10aR)-3-acetyl-8-(methyl(phenyl)carbamoyl)-6-oxodecahydropyrrolo[1,2-a][1,5]diazocin-5-yl)carbamoyl)benzo[b]thiophen-5-yl)difluoromethyl)phosphonic acid]: the concentration for half-maximal inhibition (IC50) in experiment [1] lay in the range of 1000 to 10000 nM; in experiment [2], 300 to 3000 nM.
Take `CC(=O)N1CC[C@H]2CC[C@@H](C(=O)N(C)c3ccccc3)N2C(=O)[C@@H](NC(=O)c2cc3cc(C(F)(F)P(=O)(O)O)cnc3s2)C1` [Compound 110, ((2-(((5S,8S,10aR)-3-acetyl-8-(methyl(phenyl)carbamoyl)-6-oxodecahydropyrrolo[1,2-a][1,5]diazocin-5-yl)carbamoyl)thieno[2,3-b]pyridin-5-yl)difluoromethyl)phosphonic acid]: the IC50 in experiment [1] was 1000 to 10000 nM; in experiment [2] it was 3000 to 30000 nM.
